Data reported in patent publication US9089485B2, “Pharmaceutical compositions of entacapone, levodopa and carbidopa with improved bioavailability” (Wockhardt Ltd., priority 2008, dated 2015).

Key:
[1] = background description; cited from earlier work
[2] = co-micronized with sugar alcohols, from entacapone, levodopa, carbidopa formulation vs not co-micronized
[3] = background description; cited from earlier work; remark: listed apart in the source

Change in percent drug release of entacapone [2]	Structure (SMILES)	Solubility in water [1]	Biopharmaceutics Classification system class [3]
	C[C@@](Cc1ccc(O)c(O)c1)(NN)C(=O)O [Carbidopa, (−)-L-(α-hydrazino-(α-methyl-β-(3,4-dihydroxybenzene)propanoic acid monohydrate]	slightly soluble	
significant increase	CCN(CC)C(=O)/C(C#N)=C/c1cc(O)c(O)c([N+](=O)[O-])c1 [Entacapone, (E)-2-cyano-3-(3,4-dihydroxy-5-nitrophenyl)-N,N-diethyl-2-propenamide]		class IV
	N[C@@H](Cc1ccc(O)c(O)c1)C(=O)O [Levodopa, (−)-L-α-amino-β-(3,4-dihydroxybenzene) propanoic acid]	slightly soluble	
